# Test system: lashes and adjacent hairs of patients
# Assay: lash and hair appearance in glaucoma patients treated in only one eye
# Format: in vivo, human
# Settings: unilateral treatment
# Text: In the course of treating patients having glaucoma, treatment may only be appropriate in one eye. […] The lash appearance on the lids of the treated eyes would have appeared quite attractive if it represented a bilateral phenomenon. As a result of its asymmetric nature, the long lashes on one side could be construed as disturbing from a cosmetic standpoint. A systemic examination was preformed as a result of the asymmetric phenomenon. It soon became apparent that this altered appearance was not an isolated finding. […] Definite differences could be identified to varying degrees in the lashes and adjacent hairs of all patients who were taking the drug on a unilateral basis for longer than 6 months.
# The changes in the lashes were apparent on gross inspection in several patients once attention was focused on the issue. In those with light colored hair and lashes, the differences were only seen easily with the aid of the high magnification and lighting capabilities of the slit lamp biomicroscope. In the course of glaucoma follow-up examination, attention is generally immediately focused on the eye itself. As a result of the high power magnification needed only one eye is seen at a time and the eye is seen at a high enough power that the lashes are not in focus. […]
smiles,measurement,value
CCNC(=O)CCC/C=C\C[C@@H]1[C@@H](/C=C/[C@@H](O)CCc2ccccc2)[C@H](O)C[C@@H]1O [bimatoprost],"lash growth, treated eye versus non-treated eye","longer, thicker, and fuller in the treated eye than in the non-treated eye"

# — patent publication US20090286787A1, “SUBSTITUTED GAMMA LACTAMS AS THERAPEUTIC AGENTS” (ALLERGAN, INC., priority 2008, published 2009)
